Laboratory results reported in the supplement of paper PMC10307832.

How the values were obtained:
Experiment in all cases: relative viability (nuclei count vs DMSO), 5 days (fraction); higher = more cells survive
[1] = compound: NC(=O)[C@@H](CCC(F)(F)F)N(Cc1ccc(-c2ncon2)cc1F)S(=O)(=O)c1ccc(Cl)cc1 [Avagacestat] + CC(=O)Nc1cccc(-n2c(=O)n(C3CC3)c(=O)c3c(Nc4ccc(I)cc4F)n(C)c(=O)c(C)c32)c1 [Trametinib] (partner 0.02 µM)
Method in brief: (§1)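 Lung cancer cell lines in 1536-well plates got either a single drug or a fixed anchor-drug dose together with five library-drug doses (not always all listed) in √10 steps, by pin tool, on the day after seeding. Nuclei were counted after 5 days, and relative viability is the treated-to-vehicle ratio of nuclei counts. Values are medians of duplicate plates.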

[2] = compound: NC(=O)[C@@H](CCC(F)(F)F)N(Cc1ccc(-c2ncon2)cc1F)S(=O)(=O)c1ccc(Cl)cc1 [Avagacestat] + COc1cccc2cc(-c3nc([C@H]4CC[C@H](C(=O)O)CC4)n4ncnc(N)c34)[nH]c12 [OSI-027] (partner 0.5 µM)
Method in brief: as §1

[3] = compound: NC(=O)[C@@H](CCC(F)(F)F)N(Cc1ccc(-c2ncon2)cc1F)S(=O)(=O)c1ccc(Cl)cc1 [Avagacestat] + CS(=O)(=O)CCNCc1ccc(-c2ccc3ncnc(Nc4ccc(OCc5cccc(F)c5)c(Cl)c4)c3c2)o1 [Lapatinib] (partner 2 µM)
Method in brief: as §1

[4] = compound: NC(=O)[C@@H](CCC(F)(F)F)N(Cc1ccc(-c2ncon2)cc1F)S(=O)(=O)c1ccc(Cl)cc1 [Avagacestat] + C[C@]1(O)C[C@@H](c2nc(-c3ccc4ccc(-c5ccccc5)nc4c3)c3c(N)nccn32)C1 [Linsitinib] (partner 1 µM)
Method in brief: as §1

NCI-H2405
relative viability ([1]; first compound 0.08 µM): 0.687
relative viability ([1]; first compound 0.253 µM): 0.69
relative viability ([1]; first compound 0.8 µM): 0.548
relative viability ([1]; first compound 2.53 µM): 0.508
relative viability ([1]; first compound 8 µM): 0.554
relative viability ([2]; first compound 0.08 µM): 0.628
relative viability ([2]; first compound 0.253 µM): 0.638
relative viability ([2]; first compound 0.8 µM): 0.603
relative viability ([2]; first compound 2.53 µM): 0.571
relative viability ([2]; first compound 8 µM): 0.516
relative viability ([3]; first compound 0.08 µM): 1.02
relative viability ([3]; first compound 0.253 µM): 1.12
relative viability ([3]; first compound 0.8 µM): 1.21
relative viability ([3]; first compound 2.53 µM): 0.958
relative viability ([3]; first compound 8 µM): 1
relative viability ([4]; first compound 0.08 µM): 0.873
relative viability ([4]; first compound 0.253 µM): 0.852
relative viability ([4]; first compound 0.8 µM): 1
relative viability ([4]; first compound 2.53 µM): 0.627
relative viability ([4]; first compound 8 µM): 0.737

NCI-H3122
relative viability ([1]; first compound 0.08 µM): 0.298
relative viability ([1]; first compound 0.253 µM): 0.233
relative viability ([1]; first compound 0.8 µM): 0.197
relative viability ([1]; first compound 2.53 µM): 0.23
relative viability ([1]; first compound 8 µM): 0.219
relative viability ([2]; first compound 0.08 µM): 1.09
relative viability ([2]; first compound 0.253 µM): 1.24
relative viability ([2]; first compound 0.8 µM): 1.21
relative viability ([2]; first compound 8 µM): 1.07
relative viability ([3]; first compound 0.08 µM): 1.1
relative viability ([3]; first compound 0.253 µM): 1.1
relative viability ([3]; first compound 0.8 µM): 1.03
relative viability ([3]; first compound 2.53 µM): 1.05
relative viability ([3]; first compound 8 µM): 0.99
relative viability ([4]; first compound 0.08 µM): 1.05
relative viability ([4]; first compound 0.253 µM): 1.02
relative viability ([4]; first compound 0.8 µM): 0.989
relative viability ([4]; first compound 2.53 µM): 1.01
relative viability ([4]; first compound 8 µM): 1

PC-3 [JPC-3]
relative viability ([1]; first compound 0.08 µM): 0.763
relative viability ([1]; first compound 0.253 µM): 0.754
relative viability ([1]; first compound 0.8 µM): 0.816
relative viability ([1]; first compound 2.53 µM): 0.742
relative viability ([1]; first compound 8 µM): 0.714
relative viability ([2]; first compound 0.08 µM): 0.912
relative viability ([2]; first compound 0.253 µM): 0.799
relative viability ([2]; first compound 0.8 µM): 0.908
relative viability ([2]; first compound 2.53 µM): 0.697
relative viability ([2]; first compound 8 µM): 0.735
relative viability ([3]; first compound 0.08 µM): 0.485
relative viability ([3]; first compound 0.253 µM): 0.541
relative viability ([3]; first compound 0.8 µM): 0.472
relative viability ([3]; first compound 2.53 µM): 0.479
relative viability ([3]; first compound 8 µM): 0.475
relative viability ([4]; first compound 0.08 µM): 1.01
relative viability ([4]; first compound 0.253 µM): 1.02
relative viability ([4]; first compound 0.8 µM): 0.976
relative viability ([4]; first compound 2.53 µM): 1.04
relative viability ([4]; first compound 8 µM): 0.967

PC-14
relative viability ([1]; first compound 0.08 µM): 1.14
relative viability ([1]; first compound 0.253 µM): 1.1
relative viability ([1]; first compound 0.8 µM): 0.933
relative viability ([1]; first compound 2.53 µM): 0.736
relative viability ([1]; first compound 8 µM): 0.649
relative viability ([2]; first compound 0.08 µM): 1.19
relative viability ([2]; first compound 0.253 µM): 0.888
relative viability ([2]; first compound 0.8 µM): 0.749
relative viability ([2]; first compound 2.53 µM): 0.599
relative viability ([2]; first compound 8 µM): 0.74
relative viability ([3]; first compound 0.08 µM): 0.336
relative viability ([3]; first compound 0.253 µM): 0.329
relative viability ([3]; first compound 0.8 µM): 0.476
relative viability ([3]; first compound 2.53 µM): 0.236
relative viability ([3]; first compound 8 µM): 0.315
relative viability ([4]; first compound 0.08 µM): 1.11
relative viability ([4]; first compound 0.253 µM): 1.07
relative viability ([4]; first compound 0.8 µM): 1.09
relative viability ([4]; first compound 2.53 µM): 1
relative viability ([4]; first compound 8 µM): 0.855

RERF-LC-KJ
relative viability ([1]; first compound 0.08 µM): 0.917
relative viability ([1]; first compound 0.253 µM): 0.853
relative viability ([1]; first compound 0.8 µM): 0.89
relative viability ([1]; first compound 2.53 µM): 0.81
relative viability ([1]; first compound 8 µM): 0.84
relative viability ([2]; first compound 0.08 µM): 0.57
relative viability ([2]; first compound 0.253 µM): 0.65
relative viability ([2]; first compound 0.8 µM): 0.695
relative viability ([2]; first compound 2.53 µM): 0.54
relative viability ([2]; first compound 8 µM): 0.547
relative viability ([3]; first compound 0.08 µM): 1.12
relative viability ([3]; first compound 0.253 µM): 0.887
relative viability ([3]; first compound 0.8 µM): 0.871
relative viability ([3]; first compound 2.53 µM): 0.889
relative viability ([3]; first compound 8 µM): 0.751
relative viability ([4]; first compound 0.08 µM): 0.896
relative viability ([4]; first compound 0.253 µM): 0.981
relative viability ([4]; first compound 0.8 µM): 0.92
relative viability ([4]; first compound 2.53 µM): 0.848
relative viability ([4]; first compound 8 µM): 0.761

SK-LU-1
relative viability ([1]; first compound 0.08 µM): 0.524
relative viability ([1]; first compound 0.253 µM): 0.457
relative viability ([1]; first compound 0.8 µM): 0.516
relative viability ([1]; first compound 2.53 µM): 0.467
relative viability ([1]; first compound 8 µM): 0.382
relative viability ([2]; first compound 0.08 µM): 0.379
relative viability ([2]; first compound 0.253 µM): 0.307
relative viability ([2]; first compound 0.8 µM): 0.297
relative viability ([2]; first compound 2.53 µM): 0.29
relative viability ([2]; first compound 8 µM): 0.248
relative viability ([3]; first compound 0.08 µM): 0.956
relative viability ([3]; first compound 0.253 µM): 0.852
relative viability ([3]; first compound 0.8 µM): 0.889
relative viability ([3]; first compound 8 µM): 0.73
relative viability ([4]; first compound 0.08 µM): 1.13
relative viability ([4]; first compound 0.253 µM): 1.3
relative viability ([4]; first compound 0.8 µM): 1.02
relative viability ([4]; first compound 2.53 µM): 0.918
relative viability ([4]; first compound 8 µM): 0.983

SK-MES-1
relative viability ([1]; first compound 0.08 µM): 0.564
relative viability ([1]; first compound 0.253 µM): 0.567
relative viability ([1]; first compound 0.8 µM): 0.522
relative viability ([1]; first compound 2.53 µM): 0.515
relative viability ([1]; first compound 8 µM): 0.494
relative viability ([2]; first compound 0.08 µM): 0.601
relative viability ([2]; first compound 0.253 µM): 0.675
relative viability ([2]; first compound 0.8 µM): 0.728
relative viability ([2]; first compound 2.53 µM): 0.473
relative viability ([2]; first compound 8 µM): 0.448
relative viability ([3]; first compound 0.08 µM): 0.476
relative viability ([3]; first compound 0.253 µM): 0.496
relative viability ([3]; first compound 0.8 µM): 0.531
relative viability ([3]; first compound 2.53 µM): 0.444
relative viability ([3]; first compound 8 µM): 0.423
relative viability ([4]; first compound 0.08 µM): 1.07
relative viability ([4]; first compound 0.253 µM): 1.15
relative viability ([4]; first compound 0.8 µM): 1.11
relative viability ([4]; first compound 2.53 µM): 1.06
relative viability ([4]; first compound 8 µM): 0.958

SW 1573
relative viability ([1]; first compound 0.08 µM): 0.75
relative viability ([1]; first compound 0.253 µM): 0.679
relative viability ([1]; first compound 0.8 µM): 0.519
relative viability ([1]; first compound 2.53 µM): 0.629
relative viability ([1]; first compound 8 µM): 0.462
relative viability ([2]; first compound 0.08 µM): 0.8
relative viability ([2]; first compound 0.253 µM): 0.654
relative viability ([2]; first compound 0.8 µM): 0.806
relative viability ([2]; first compound 2.53 µM): 0.61
relative viability ([2]; first compound 8 µM): 0.446
relative viability ([3]; first compound 0.08 µM): 1.19
relative viability ([3]; first compound 0.253 µM): 1.21
relative viability ([3]; first compound 0.8 µM): 0.982
relative viability ([3]; first compound 2.53 µM): 1.1
relative viability ([3]; first compound 8 µM): 1.09
relative viability ([4]; first compound 0.08 µM): 0.894
relative viability ([4]; first compound 0.253 µM): 0.876
relative viability ([4]; first compound 0.8 µM): 0.756
relative viability ([4]; first compound 2.53 µM): 0.771
relative viability ([4]; first compound 8 µM): 0.699

UMC-11
relative viability ([1]; first compound 0.08 µM): 0.752
relative viability ([1]; first compound 0.253 µM): 0.686
relative viability ([1]; first compound 0.8 µM): 0.799
relative viability ([1]; first compound 2.53 µM): 0.789
relative viability ([1]; first compound 8 µM): 0.675
relative viability ([2]; first compound 0.08 µM): 0.52
relative viability ([2]; first compound 0.253 µM): 0.454
relative viability ([2]; first compound 0.8 µM): 0.503
relative viability ([2]; first compound 2.53 µM): 0.461
relative viability ([2]; first compound 8 µM): 0.465
relative viability ([3]; first compound 0.08 µM): 1.17
relative viability ([3]; first compound 0.253 µM): 1
relative viability ([3]; first compound 0.8 µM): 1.26
relative viability ([3]; first compound 2.53 µM): 1.1
relative viability ([3]; first compound 8 µM): 0.921
relative viability ([4]; first compound 0.08 µM): 1.2
relative viability ([4]; first compound 0.253 µM): 1.12
relative viability ([4]; first compound 0.8 µM): 1.18
relative viability ([4]; first compound 2.53 µM): 1.04
relative viability ([4]; first compound 8 µM): 0.933
